Test: Ex vivo cleavage kinetics of MDTG in mouse whole blood
Assay type: in vitro ADME
Details: after 60 min
Method: A lipophilic and hydrophobic modified DTG prodrug (called MDTG) was synthesized through myristoylation of the parent drug hydroxyl group. Initially, DTG was dried by co-evaporation from anhydrous pyridine then resuspended in anhydrous DMF and cooled to 0 °C under argon. 2-equivalents DIEA were used to deprotonate the 7-hydroxyl group of DTG, which was then immediately reacted with 2 equivalents myristoyl chloride for 24 h. The resultant product was purified by silica gel column chromatography using an initial mobile phase of 4:1 ethyl acetate: hexanes for 12 fractions, then 9:1 ethyl acetate: hexanes for the remainder. Once purified, fractions containing the UV active prodrug were dried and precipitated from diethyl ether. The precipitate was collected by centrifugation at 3500 r.p.m. for 15 min and dried under vacuum, while the supernatant was discarded. MDTG was synthesized at a final drug yield of 82.8%. Proton nuclear magnetic resonance (^1H NMR), carbon nuclear magnetic resonance (^13C NMR), and Fourier-transform infrared (FTIR) spectroscopy, positive electrospray ionization mass spectroscopy (ESI-MS), and powder X-ray diffraction (XRD) were used to characterize the structure of MDTG. […] ESI-MS specifics (m/z): calculated for C34H45F2N3O6, 629.33 (100%), 630.33 (36.8%), 631.33 (3.9%); found, 630.30. […] The aqueous solubility of DTG and MDTG was evaluated by adding excess drug to water at room temperature then mixing it overnight. […] Solubilized drug in the supernatant was extracted in methanol and measured using a Waters ACQUITY ultra performance liquid chromatography (UPLC) H-Class System with TUV detector and Empower 3 software (Milford, MA). For DTG and MDTG quantitation, drug extracts were separated on a Phenomenex Kinetex 5 μm C18 column (150 × 4.6 mm) (Torrance, CA) using either 65% 50 mM KH2PO4, pH 3.2/35% ACN (DTG) or 90% ACN/10% water (MDTG) with a flow rate of 1.0 mL/min and detected at 254 nm and 230 nm, respectively. Drug content was quantitated by comparison of peak area to those of known standards (0.05–50 µg/mL). Ex vivo cleavage kinetics of MDTG was assessed in mouse whole blood. […]

CCCCCCCCCCCCCC(=O)Oc1c2n(cc(C(=O)NCc3ccc(F)cc3F)c1=O)C[C@@H]1OCC[C@@H](C)N1C2=O [MDTG] gave an MDTG cleaved (after acetonitrile (ACN) addition) of 21.9%, an MDTG hydrolyzed (blood diluted ten-fold) of 88.7% and an MDTG hydrolyzed (blood spiked with an esterase inhibitor) of 15.2%. It also gave an MDTG cleaved (whole blood, room temperature) of 79.9%.

Source: article PMC5799307, “Creation of a long-acting nanoformulated dolutegravir” (Nature Communications, 2018)
